Results reported in patent US8338423B2, “Compositions for the treatment of hyperphenylalaninemia” (Universidad de Zaragoza, priority 2007, dated 2012).

Biological target: T1, wt-PAH (Homo sapiens, UniProt P00439)
T1 construct: made in house; host or cells: E. coli
T1 sequence (P00439 1-452): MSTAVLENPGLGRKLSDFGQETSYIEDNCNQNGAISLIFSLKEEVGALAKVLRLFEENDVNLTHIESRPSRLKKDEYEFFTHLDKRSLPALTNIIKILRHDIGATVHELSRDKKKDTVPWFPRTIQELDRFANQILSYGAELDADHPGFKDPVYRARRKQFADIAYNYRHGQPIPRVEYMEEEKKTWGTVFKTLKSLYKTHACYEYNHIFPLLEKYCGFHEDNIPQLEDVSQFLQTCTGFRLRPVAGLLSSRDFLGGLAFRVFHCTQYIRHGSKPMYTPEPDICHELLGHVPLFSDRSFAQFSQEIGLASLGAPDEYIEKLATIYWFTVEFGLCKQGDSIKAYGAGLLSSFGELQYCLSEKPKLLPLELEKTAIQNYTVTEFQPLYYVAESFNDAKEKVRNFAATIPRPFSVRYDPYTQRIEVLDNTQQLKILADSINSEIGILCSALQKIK
Assay: ANS-monitored thermal unfolding of wt-PAH
Type: binding
Conditions: 25 μM compound (FIG. 2)
Procedure: HTS for ligand-induced PAH stabilization was performed by monitoring the thermal denaturation of recombinant pure PAH protein in the presence of the extrinsic fluorescent probe 8-anilino 1-naphtalene sulfonic acid (ANS; Aldrich). HTS experiments were performed in a FluoDia T70 High Temperature Fluorescence Microplate Reader (Photon Technology International). Protein-ligand solutions (200 uL) were dispensed into 96-well microplates (ThermoFast®96 Skirted from Abgene) and overlayed with mineral oil. Protein solutions contained 0.1 mg/ml PAH (2 μM in PAH subunit) in 20 mM Hepes 200 mM NaCl pH 7.0 and 100 μM ANS. Ligands were added in DMSO, at 100 μM and 2.5% final concentration, respectively. Control experiments in the absence of DMSO and/or ligands were routinely performed in each microplate. Ligands (from MayBridge HitFinder™ Collection Database) were manually added to the microplates containing the protein solutions and incubated at 25° C. for 30 min before loading them onto the microplate reader. Thermal denaturation was monitored by following the increase in ANS fluorescence intensity due to protein unfolding λexc=395 and λern=500 nm; filters (Matulis D, et. Al., Biochemistry 2005, 44(13):5258-66). Fluorescence was registered in the 25-75° C. range, at a 1° C./min scan rate and allowing the system to equilibrate at each temperature for 1 min before fluorescence acquisition The experiments were real-time monitored using the software provided by the manufacturer. After smoothing and normalization of the experimental data, ligand induced stabilization was screened by estimation of the T0.5 as midpoint temperature of the transition defined as the temperature where half of the unfolded fluorescence signal (fu) is experimentally observed, using a home-built software written in C++ and the following expression (equation 1): […]
Additional thermal denaturation experiments were performed on a Cary Eclipse fluorescence spectrophotometer equipped with a temperature controlled Peltier multicell holder (Varian). Samples containing PAH (2 μM subunit) in 20 mM NaHepes, 200 mM NaCl, pH 7.0, 100 μM ANS, 2.5% DMSO and 0-100 μM ligands were incubated at room temperature for 30 min to allow equilibration prior to measurements. Thermal denaturation was monitored by following changes in ANS fluorescence emission (excitation at 395 and emission at 500 nm; slits 10 nm) at a 1 K/min in a 20-80° C. range. Each run contained 4 different samples, including a control in the absence of ligand. Data analysis was performed by fitting of the experimental fluorescence to equation 1.

Structure (SMILES)	stabilizing effect on wt-PAH
Cc1ccnc(-n2c(=S)[nH]c3sc(C)c(C)c3c2=O)c1 [Compound 13, 5,6-dimethyl-3-(4-methyl-2-pyridinyl)-2-thioxo-2,3 dihydrothieno[2,3-d]pyrimidin-4(1H)-one]	significant
Nc1c(-c2ccc3ccccc3n2)c2ccc([N+](=O)[O-])cc2c(=O)n1Cc1ccccc1 [Compound 11, 3-amino-2-benzyl-7-nitro-4-(2-quinolyl)-1,2-dihydroisoquinolin-1-one]	significant

Same assay, conditions: 100 μM compound, vs no ligand

Structure (SMILES)	ΔT0.5 PAHwt [°C]
Cc1ccnc(-n2c(=S)[nH]c3sc(C)c(C)c3c2=O)c1 [Compound 13, 5,6-dimethyl-3-(4-methyl-2-pyridinyl)-2-thioxo-2,3 dihydrothieno[2,3-d]pyrimidin-4(1H)-one]	7.2
Cc1onc(-c2ccccc2)c1-c1n[nH]c(N)c1C#N [Compound 5, 5-amino-3-(5-methyl-3-phenyl-4-isoxazolyl)-1H-pyrazole-4-carbonitrile]	2.6
Cn1cnc([N+](=O)[O-])c1N1CCN(C(c2ccccc2)c2ccccc2)CC1 [Compound 6, 1-benzhydryl-4-(1-methyl-4-nitro-1H-imidazol-5-yl)piperazine]	2.7
Nc1c(-c2ccc3ccccc3n2)c2ccc([N+](=O)[O-])cc2c(=O)n1Cc1ccccc1 [Compound 11, 3-amino-2-benzyl-7-nitro-4-(2-quinolyl)-1,2-dihydroisoquinolin-1-one]	13.6

Same assay, conditions: 100 μM compound; mean ± SD

Structure (SMILES)	T0.5 PAHwt (half denaturation temperature) [°C]
Cc1ccnc(-n2c(=S)[nH]c3sc(C)c(C)c3c2=O)c1 [Compound 13, 5,6-dimethyl-3-(4-methyl-2-pyridinyl)-2-thioxo-2,3 dihydrothieno[2,3-d]pyrimidin-4(1H)-one]	56.7 ± 1.5
Cc1onc(-c2ccccc2)c1-c1n[nH]c(N)c1C#N [Compound 5, 5-amino-3-(5-methyl-3-phenyl-4-isoxazolyl)-1H-pyrazole-4-carbonitrile]	52.1 ± 0.9
Cn1cnc([N+](=O)[O-])c1N1CCN(C(c2ccccc2)c2ccccc2)CC1 [Compound 6, 1-benzhydryl-4-(1-methyl-4-nitro-1H-imidazol-5-yl)piperazine]	52.2 ± 1.3
Nc1c(-c2ccc3ccccc3n2)c2ccc([N+](=O)[O-])cc2c(=O)n1Cc1ccccc1 [Compound 11, 3-amino-2-benzyl-7-nitro-4-(2-quinolyl)-1,2-dihydroisoquinolin-1-one]	63.1 ± 2.9

Biological target: T1, wt-PAH
Assay: Enzyme kinetic analysis of recombinant PAH activity
Type: biochemical
Conditions: 100 μM compound, 75 μM BH4
Procedure: PAH activity was measured at 25° C. for 1 min essentially as described (BjØrgo E, et al., Eur. J. Biochem. 1988; 257(1):1-10). Tetrameric hPAH (1-2 μg) was incubated in 20 mM Hepes 0.2 M NaCl pH 7.0, containing catalase (0.04 mg/ml), 0.1-1 mM L-Phe, DMSO 2.5% and 0-100 μM of each compound. After 4 min incubation at 25° C., ferrous ammonium sulphate (100 μM) was added, and the reaction was triggered after 1 min by adding BH4 (10-200 μM) in the presence of 5 mM DTT. In some experiments, the preincubation step with L-Phe was omitted and L-Phe was added together with BH4 to analyze the L-Phe induced activation of the enzyme. To determine the kinetic parameters for BH4 and L-Phe, BH4 was used at 0-200 μM (at fixed 1 mM L-Phe) and L-Phe at 0-1 mM (BH4 was fixed at 75 μM). L-Tyr formed was quantified by HPLC and fluorimetric detection (DØskeland A P, et al., J. Biol. Chem. 1984; 259:11242-11248). The saturation curves were fitted to hyperbolic (for BH4) or sigmoidal (for L-Phe) kinetic models by using Sigma Plot v.9.0 (SPSS Inc).
PAH enzyme kinetics have been analyzed in the presence of the four hit compounds in order to know if ligand binding interferes with PAH catalytic activity. Activity measurements were performed in the presence of high (100 μM) concentrations of ligands with or without preincubating PAH enzyme with L-Phe prior to activity assays. L-Phe preincubation of human PAH lead to activation of the enzyme and manifestation of positive cooperativity by the substrate, and it is thought to play an important regulatory role on PAH activity in vivo (Pey A L, et al., In: Blau N. ed. Advances in PKU and BH4, 2006). […] It is worth noting that under these conditions, ligand concentration equalled L-Phe concentration (100 μM), and 10-fold exceeded BH4 concentration (10 μM). Except for compound 13, this inhibition was dramatically weakened when the preincubation step with L-Phe (100 μM) was ommited. Moreover, when L-Phe and BH4 are used at saturating concentrations, inhibition was abolished (FIG. 3B), indicating a rather weak and reversible inhibitory effect exerted by these ligands.
Further kinetic analyses were performed to determine if the weak inhibition was due to competition for the substrate and/or cofactor binding sites. Activity dependence on BH4 and L-Phe concentration was measured in the presence of 100 μM compound concentration, and the experimental data fitted to hyperbolic (BH4) or sigmoidal (L-Phe) kinetic models. The fitting parameters obtained from these experiments are compiled in Table 2. […] These values are substantially higher than those obtained for likely physiological inhibitors of PAH, such as 7S-BH4 and BH2 (Kl˜2-5 μM and ˜17 μM, respectively).

Structure (SMILES)	reduction in Vmax (activity dependence on L-Phe)
Cc1ccnc(-n2c(=S)[nH]c3sc(C)c(C)c3c2=O)c1 [Compound 13, 5,6-dimethyl-3-(4-methyl-2-pyridinyl)-2-thioxo-2,3 dihydrothieno[2,3-d]pyrimidin-4(1H)-one]	~30%
Cc1onc(-c2ccccc2)c1-c1n[nH]c(N)c1C#N [Compound 5, 5-amino-3-(5-methyl-3-phenyl-4-isoxazolyl)-1H-pyrazole-4-carbonitrile]	about 13%

Same assay, conditions: 100 μM compound, 100 μM L-Phe, 10 μM BH4, L-Phe preincubation (FIG. 3A)

Structure (SMILES)	inhibition of PAH activity
Cc1ccnc(-n2c(=S)[nH]c3sc(C)c(C)c3c2=O)c1 [Compound 13, 5,6-dimethyl-3-(4-methyl-2-pyridinyl)-2-thioxo-2,3 dihydrothieno[2,3-d]pyrimidin-4(1H)-one]	specially significant
Cc1onc(-c2ccccc2)c1-c1n[nH]c(N)c1C#N [Compound 5, 5-amino-3-(5-methyl-3-phenyl-4-isoxazolyl)-1H-pyrazole-4-carbonitrile]	specially significant

Same assay, conditions: 100 μM compound, preincubation with 1 mM L-Phe

Structure (SMILES)	increase of Km for BH4 [%]
Cc1ccnc(-n2c(=S)[nH]c3sc(C)c(C)c3c2=O)c1 [Compound 13, 5,6-dimethyl-3-(4-methyl-2-pyridinyl)-2-thioxo-2,3 dihydrothieno[2,3-d]pyrimidin-4(1H)-one]	~50
Cc1onc(-c2ccccc2)c1-c1n[nH]c(N)c1C#N [Compound 5, 5-amino-3-(5-methyl-3-phenyl-4-isoxazolyl)-1H-pyrazole-4-carbonitrile]	~20

Same assay, conditions: 100 μM compound; 75 μM BH4, L-Phe 0-1 mM; preincubated; mean ± S.E.

Structure (SMILES)	S0.5, L-Phe [µM]	Vmax, L-Phe [μmol L-Tyr/min·mg]	h (Hill coefficient), L-Phe
Cc1ccnc(-n2c(=S)[nH]c3sc(C)c(C)c3c2=O)c1 [Compound 13, 5,6-dimethyl-3-(4-methyl-2-pyridinyl)-2-thioxo-2,3 dihydrothieno[2,3-d]pyrimidin-4(1H)-one]	131 ± 11	2.43 ± 0.10	1.6 ± 0.2
Cc1onc(-c2ccccc2)c1-c1n[nH]c(N)c1C#N [Compound 5, 5-amino-3-(5-methyl-3-phenyl-4-isoxazolyl)-1H-pyrazole-4-carbonitrile]	118 ± 5	3.02 ± 0.08	2.6 ± 0.3
Cn1cnc([N+](=O)[O-])c1N1CCN(C(c2ccccc2)c2ccccc2)CC1 [Compound 6, 1-benzhydryl-4-(1-methyl-4-nitro-1H-imidazol-5-yl)piperazine]	156 ± 10	3.77 ± 0.13	1.8 ± 0.1
Nc1c(-c2ccc3ccccc3n2)c2ccc([N+](=O)[O-])cc2c(=O)n1Cc1ccccc1 [Compound 11, 3-amino-2-benzyl-7-nitro-4-(2-quinolyl)-1,2-dihydroisoquinolin-1-one]	138 ± 8	3.57 ± 0.11	1.9 ± 0.2

Same assay, conditions: 100 μM compound; 1 mM L-Phe, BH4 0-200 μM; not preincubated; mean ± S.E.

Structure (SMILES)	Vmax, BH4, No preincubation [μmol L-Tyr/min·mg]
Cc1ccnc(-n2c(=S)[nH]c3sc(C)c(C)c3c2=O)c1 [Compound 13, 5,6-dimethyl-3-(4-methyl-2-pyridinyl)-2-thioxo-2,3 dihydrothieno[2,3-d]pyrimidin-4(1H)-one]	0.85 ± 0.07
Cc1onc(-c2ccccc2)c1-c1n[nH]c(N)c1C#N [Compound 5, 5-amino-3-(5-methyl-3-phenyl-4-isoxazolyl)-1H-pyrazole-4-carbonitrile]	0.80 ± 0.05
Cn1cnc([N+](=O)[O-])c1N1CCN(C(c2ccccc2)c2ccccc2)CC1 [Compound 6, 1-benzhydryl-4-(1-methyl-4-nitro-1H-imidazol-5-yl)piperazine]	0.81 ± 0.05
Nc1c(-c2ccc3ccccc3n2)c2ccc([N+](=O)[O-])cc2c(=O)n1Cc1ccccc1 [Compound 11, 3-amino-2-benzyl-7-nitro-4-(2-quinolyl)-1,2-dihydroisoquinolin-1-one]	0.86 ± 0.03

Same assay, conditions: 100 μM compound; 1 mM L-Phe, BH4 0-200 μM; preincubated with L-Phe; mean ± S.E.

Structure (SMILES)	Vmax, BH4, Preincubation [μmol L-Tyr/min·mg]
Cc1ccnc(-n2c(=S)[nH]c3sc(C)c(C)c3c2=O)c1 [Compound 13, 5,6-dimethyl-3-(4-methyl-2-pyridinyl)-2-thioxo-2,3 dihydrothieno[2,3-d]pyrimidin-4(1H)-one]	3.11 ± 0.16
Cc1onc(-c2ccccc2)c1-c1n[nH]c(N)c1C#N [Compound 5, 5-amino-3-(5-methyl-3-phenyl-4-isoxazolyl)-1H-pyrazole-4-carbonitrile]	3.52 ± 0.41
Cn1cnc([N+](=O)[O-])c1N1CCN(C(c2ccccc2)c2ccccc2)CC1 [Compound 6, 1-benzhydryl-4-(1-methyl-4-nitro-1H-imidazol-5-yl)piperazine]	2.96 ± 0.10
Nc1c(-c2ccc3ccccc3n2)c2ccc([N+](=O)[O-])cc2c(=O)n1Cc1ccccc1 [Compound 11, 3-amino-2-benzyl-7-nitro-4-(2-quinolyl)-1,2-dihydroisoquinolin-1-one]	2.87 ± 0.14

Same assay, conditions: using standard equations for competitive inhibition; read-out: Kl vs BH4 (competitive inhibition)

Structure (SMILES)	Ki [µM]
Cc1ccnc(-n2c(=S)[nH]c3sc(C)c(C)c3c2=O)c1 [Compound 13, 5,6-dimethyl-3-(4-methyl-2-pyridinyl)-2-thioxo-2,3 dihydrothieno[2,3-d]pyrimidin-4(1H)-one]	~200
Cc1onc(-c2ccccc2)c1-c1n[nH]c(N)c1C#N [Compound 5, 5-amino-3-(5-methyl-3-phenyl-4-isoxazolyl)-1H-pyrazole-4-carbonitrile]	~500
